Format in all cases: cell-based
Experiment [1] concerns protein translation in HEK-293T cells. Nature of the experiment: 35S-methionine/cysteine incorporation translation assay. The conditions noted are these: saturating concentration (Cbz-B3A 10 μM); 4 h treatment then 1 h labeling. The protocol: 80,000 cells/well of HEK-293T cells were plated into 24 well plates 24 h before the assay. Cells were treated with indicated concentration of compound for 4 h. After 4 h, the media was removed and replaced with DMEM without methionine and cysteine (Lifetechnologies) supplemented with 0.2 mCi/mL EXPRESS [^35S] protein labeling mix (PerkinElmer), 10% dialyzed FBS (Pierce), 1× glutaMax (Gibco), 100 U/mL penicillin 100 μg/mL streptomycin (Gibco), 1 mM sodium pyruvate (Lifetechnologies), and the indicated concentration of compound. After 1 h, this media was removed, cells were washed with ice cold PBS, and lysed with low deoxycholate RIPA buffer (10 mM Tris-Cl, 1% NP-40, 0.5% Na Deoxycholate, 0.1% SDS, 140 mM NaCl, 1 mM EDTA, 500 μM EGTA, 1× Roche Complete protease inhibitors, 1:100 Benzonase, and at pH 8.0). Lysate was centrifuged at maximum speed for 20 m at 4° C. The concentration was measured by Bradford assay. 10 μg of lysate was added to […] ice cold 1 mg/mL BSA with 0.02% Na Azide. 1 mL of ice cold 10% TCA was added, the solutions were mixed and incubated on ice for 0.5 h. These mixtures were vacuum filtered onto GF/C Whatman glass microfiber filters. The filters were washed with 2×5 mL of 10% TCA, then 2×3 mL ethanol. The filters were then dried for a 0.5 h. The filters were placed into scintillation vials with 5 mL of scintillation fluid and read on a scintillation counter.

Experiment [2] relates to firefly luciferase. Description: Luciferase assay in stably transduced luciferase HEK-293T cells. The following applies: for wild type luciferase signal: HEK-293T cells expressing HA-luciferase, 100 μM, 4 h; for luciferase levels / activity, inhibitor alone: 100 μg/mL cycloheximide or 6 μM bortezomib. The protocol:
Firefly luciferase and firefly luciferase-eDHFR were cloned into pBABE-puro vector which was a gift from Hartmut Land & Jay Morgenstern & Bob Weinberg (Addgene plasmid #1764). pBABE-puro-luciferase was co-transfected with VSV-G into GP2-293 cells (Retro-X Universal Packaging System, Clonetech, Mountain View, Calif.) with TransIT-2020 (MirusBio) according to TransIT-2020's manufacture's protocol. After 48 h, viral supernatant was harvested, spun down, filtered with a […] syringe filter, and added to HEK-293T supplemented with 8 μg/mL polybrene. After 4 h of infection, the media was replaced with fresh media. 48 h later, media was replaced with media containing 3 μg/mL puromycin. Media was replaced with fresh media containing puromycin every 3-4 days. After 2 weeks of puromycin selection, the cells were grown out from single cell colonies and screened for luciferase expression.
Stably transduced luciferase HEK-293T cells were plated in 96-well plates 24 h prior to treatment with 100 μM of Cbz-B3A, amine-B3A, acetyl-B3A, and Cbz-acetyl. After 4 h, cells were harvested and measured with Luciferase Assay System with Reporter Lysis Buffer from Promega according to the manufacturer's protocol. Before the addition of luciferin, protein concentration was measured by removing 2 μl of lysate from each well and adding it to diluted Bio-Rad Protein Assay Dye Reagent Concentrate, and the absorbance was measured at OD595. The protein concentration was used to normalize luciferase signal. For translation assays, cells were pretreated for 15 min with 100 μg/mL cycloheximide or 6 μM bortezomib. For the recombinant luciferase assay, Quantilum Recombinant Luciferase (Promega) was diluted 1:250,000 in reporter lysis buffer with 1 mg/mL BSA then mixed 1:1 with 200 μM compound in the same buffer for a final dilution of 1:500,000 and 100 μM compound in 20 μL. This was incubated for 10 min at room temperature then measured with Luciferase Assay System with Reporter Lysis Buffer from Promega according to the manufacturer's protocol.

Experiment [3] deals with 4EBP1 phosphorylation by mTORC1. Nature of the experiment: 4EBP1 phosphorylation immunoblot in HEK-293T cells. The protocol:
(§1) Quantification of western blots was performed with ImageJ. Cells were lysed in RIPA buffer (1% NP-40, 1% NaDeoxycholate, 0.1% SDS, 10 mM TrisCl, 10 mM β-glycerophosphate, 10 mM Na pyrophosphate, 50 mM NaF, 200 μM Na vanadate, 1 mM EDTA, 500 μM EGTA, 1% benzonase, and supplemented with complete (Roche Diagnostics) protease inhibitors).

Experiment [4] relates to firefly luciferase. Description: Luciferase assay in stably transduced luciferase HEK-293T cells. The following applies: HEK-293T luciferase-eDHFR and wild-type luciferase cells; 200 TMP-B3A (unit not given) vs DMSO.
Another experiment deals with eIF2α. Description: eIF2α phosphorylation immunoblot in HEK-293T cells. The conditions noted are these: 1 h; tunicamycin 5 μg/mL, thapsigargin 500 nM; compared with vehicle. The protocol: as §1
(In general: In western blotting, separated proteins are transferred to a membrane and probed.)

As to `CO[C@H]1C[C@@H]2CC[C@@H](C)[C@@](O)(O2)C(=O)C(=O)N2CCCC[C@H]2C(=O)O[C@H]([C@H](C)C[C@@H]2CC[C@@H](O)[C@H](OC)C2)CC(=O)[C@H](C)/C=C(\C)[C@@H](O)[C@@H](OC)C(=O)[C@H](C)C[C@H](C)/C=C/C=C/C=C/1C` [rapamycin, reference compound], the “maximal inhibition of translation (35S-methionine/cysteine incorporation)” value in experiment [1] turned out to be 35%. `CC(=O)NCCCCCCNC(=O)OCc1ccccc1` [Cbz-acetyl]: the “wild type luciferase signal” value in the experiment on firefly luciferase [2] was “not reduced”. Also, the “4EBP1 phosphorylation (hyper- vs hypo-phosphorylated band)” value in experiment [3] (Cbz-B3A 10 μM, Cbz-acetyl 10 μM, rapamycin 20 nM, 4 h) was “No shift”.

In the case of `CC(C)(C)OC(=O)/N=C(\NCCC[C@H](NC(=O)OC(C)(C)C)C(=O)NCCCCCCN)NC(=O)OC(C)(C)C` [Amine-B3A], in the experiment with firefly luciferase [2], the “wild type luciferase signal” value is listed as “decreased the wild type luciferase signal”. For `CC(C)(C)OC(=O)/N=C(/NCCCC(NC(=O)OC(C)(C)C)C(=O)NCCCCNC(=O)OCc1ccccc1)NC(=O)OC(C)(C)C` (centres unmarked) [JX-8], in experiment [3] (20 μM, 3 h, anti-4EBP1 western blot), the “4EBP1 phosphorylation, comparison with Cbz-B3A” value is given as “more potent mTOR inhibitor than CB3A”. On to `C[C@@H]1C[C@@H]([C@H](O)CC2CC(=O)NC(=O)C2)C(=O)[C@@H](C)C1` [cycloheximide, reference compound], for which the “luciferase levels / activity, inhibitor alone” value in the experiment on firefly luciferase [2] was “luciferase activity decreased”. `CC(=O)NCCCCCCNC(=O)[C@H](CCCN/C(=N\C(=O)OC(C)(C)C)NC(=O)OC(C)(C)C)NC(=O)OC(C)(C)C` [acetyl-B3A]: in the experiment with firefly luciferase [2], the “wild type luciferase signal” value is listed as “decreased the wild type luciferase signal”. For the compound `COc1cc(Cc2cnc(N)nc2N)cc(OC)c1OCC(=O)NCCCCCCNC(=O)[C@H](CCCN/C(=N\C(=O)OC(C)(C)C)NC(=O)OC(C)(C)C)NC(=O)OC(C)(C)C` [TMP-B3A], in the experiment on firefly luciferase [4], the luciferase signal result is “reduced luciferase signal to similar levels in both luciferase-eDHFR and wild-type luciferase cells”.

Take tunicamycin: in the experiment with eIF2α, the eIF2α phosphorylation entry is recorded as “increased phosphorylation of eIF2α”.

With `C/C=C(/C)C(=O)O[C@H]1C(C)=C2[C@H]([C@@H]1OC(=O)CCCCCCC)[C@@](C)(OC(C)=O)C[C@H](OC(=O)CCC)[C@@]1(O)[C@H]2OC(=O)[C@@]1(C)O` [thapsigargin], the eIF2α phosphorylation result in the experiment with eIF2α was “increased phosphorylation of eIF2α”. For `CC(C)C[C@H](NC(=O)[C@H](Cc1ccccc1)NC(=O)c1cnccn1)B(O)O` [Bortezomib, reference compound], the “luciferase levels / activity, inhibitor alone” value in the experiment on firefly luciferase [2] is “decreased luciferase levels”.

The record behind these values is patent publication US20180327364A1, “MTOR INHIBITORS AND METHODS OF USE THEREOF” (Brandeis University, priority 2015, published 2018).
